# Experimental data as given in ChEMBL document CHEMBL1146065, “Structure-based optimization of azole antifungal agents by CoMFA, CoMSIA, and molecular docking” (2006).
# Experiments:
# Type in all cases: functional
# [1] = test system: Candida albicans; assay: Antifungal activity against Candida albicans
# [2] = test system: Candida parapsilosis; assay: Antifungal activity against Candida parapsilosis; settings: Lodderomyces parapsilosis
# [3] = test system: Candida tropicalis; assay: Antifungal activity against Candida tropicalis
# [4] = test system: Cryptococcus neoformans; assay: Antifungal activity against Cryptococcus neoformans
# [5] = test system: Aspergillus fumigatus; assay: Antifungal activity against Aspergillus fumigatus
# [6] = test system: Fonsecaea pedrosoi; assay: Antifungal activity against Fonsecaea pedrosoi
# [7] = test system: Trichophyton rubrum; assay: Antifungal activity against Trichophyton rubrum
# [8] = test system: Sporothrix schenckii; assay: Antifungal activity against Sporothrix schenckii
MIC80 [1],MIC80 [2],MIC80 [3],MIC80 [4],MIC80 [5],MIC80 [6],MIC80 [7],MIC80 [8],Compound
0.031 µg/mL,2 µg/mL,0.0625 µg/mL,1 µg/mL,32 µg/mL,0.0625 µg/mL,1 µg/mL,64 µg/mL,CN(Cc1ccc(-n2cnn(Cc3ccccc3F)c2=O)cc1)CC(O)(Cn1cncn1)c1ccc(F)cc1F (stereo not given)
0.285 µM,–,–,–,–,–,–,–,N#Cc1ccc(CN2CCN(CC(O)(Cn3cncn3)c3ccc(F)cc3F)CC2)cc1 (stereo not given)
0.566 µM,–,–,–,–,–,–,–,CCc1ccc(CN2CCN(CC(O)(Cn3cncn3)c3ccc(F)cc3F)CC2)cc1 (stereo not given)
1.06 µM,–,–,–,–,–,–,–,O=C(c1ccc([N+](=O)[O-])cc1)N1CCN(CC(O)(Cn2cncn2)c2ccc(F)cc2F)CC1 (stereo not given)
2.27 µM,–,–,–,–,–,–,–,Cc1cccc(C(=O)N2CCN(CC(O)(Cn3cncn3)c3ccc(F)cc3F)CC2)c1 (stereo not given)
0.273 µM,–,–,–,–,–,–,–,COc1ccc(C(=O)N2CCN(CC(O)(Cn3cncn3)c3ccc(F)cc3F)CC2)cc1 (stereo not given)
0.002 µg/mL,0.008 µg/mL,0.0625 µg/mL,0.5 µg/mL,4 µg/mL,0.125 µg/mL,0.5 µg/mL,64 µg/mL,CN(Cc1ccc(-n2cnn(Cc3ccc(Cl)cc3)c2=O)cc1)CC(O)(Cn1cncn1)c1ccc(F)cc1F (stereo not given)
2.23 µM,–,–,–,–,–,–,–,O=C(c1ccc(F)cc1)N1CCN(CC(O)(Cn2cncn2)c2ccc(F)cc2F)CC1 (stereo not given)
0.004 µg/mL,0.06 µg/mL,0.125 µg/mL,1 µg/mL,32 µg/mL,0.5 µg/mL,4 µg/mL,32 µg/mL,CN(Cc1ccc(-n2cnn(Cc3ccccc3Cl)c2=O)cc1)CC(O)(Cn1cncn1)c1ccc(F)cc1F (stereo not given)
34.9 µM,–,–,–,–,–,–,–,O=[N+]([O-])c1ccccc1CN1CCN(CC(O)(Cn2cncn2)c2ccc(F)cc2F)CC1 (stereo not given)
0.579 µM,–,–,–,–,–,–,–,OC(CN1CCN(Cc2ccc(F)cc2)CC1)(Cn1cncn1)c1ccc(F)cc1F (stereo not given)
2.5 µM,–,–,–,–,–,–,–,OC(CN1CCN(c2ccncc2)CC1)(Cn1cncn1)c1ccc(F)cc1F (stereo not given)
2.16 µM,–,–,–,–,–,–,–,O=C(c1ccccc1Cl)N1CCN(CC(O)(Cn2cncn2)c2ccc(F)cc2F)CC1 (stereo not given)
0.002 µg/mL,0.125 µg/mL,0.0625 µg/mL,0.5 µg/mL,8 µg/mL,0.0625 µg/mL,0.5 µg/mL,64 µg/mL,Cc1ccc(C(=O)Cn2ncn(-c3ccc(CN(C)CC(O)(Cn4cncn4)c4ccc(F)cc4F)cc3)c2=O)c(C)c1 (stereo not given)
0.122 µM,–,–,–,–,–,–,–,OC(CN1CCN(Cc2cc(F)ccc2Br)CC1)(Cn1cncn1)c1ccc(F)cc1F (stereo not given)
0.008 µg/mL,0.016 µg/mL,0.0625 µg/mL,8 µg/mL,64 µg/mL,2 µg/mL,4 µg/mL,64 µg/mL,CN(Cc1ccc(-n2cnn(CC(=O)c3ccc(F)cc3F)c2=O)cc1)CC(O)(Cn1cncn1)c1ccc(F)cc1F (stereo not given)
0.002 µg/mL,0.008 µg/mL,0.0312 µg/mL,0.125 µg/mL,16 µg/mL,0.125 µg/mL,1 µg/mL,64 µg/mL,Cc1ccc(C(=O)Cn2ncn(-c3ccc(CN(C)CC(O)(Cn4cncn4)c4ccc(F)cc4F)cc3)c2=O)cc1 (stereo not given)
0.031 µg/mL,1 µg/mL,0.125 µg/mL,16 µg/mL,64 µg/mL,4 µg/mL,32 µg/mL,64 µg/mL,CN(Cc1ccc(-n2cnn(CC(=O)c3ccc(Cl)cc3Cl)c2=O)cc1)CC(O)(Cn1cncn1)c1ccc(F)cc1F (stereo not given)
0.558 µM,–,–,–,–,–,–,–,OC(CN1CCN(Cc2ccccc2Cl)CC1)(Cn1cncn1)c1ccc(F)cc1F (stereo not given)
0.0324 µM,–,–,–,–,–,–,–,N#Cc1ccc(N2CCN(CC(O)(Cn3cncn3)c3ccc(F)cc3F)CC2)cc1 (stereo not given)
0.031 µg/mL,0.016 µg/mL,1 µg/mL,64 µg/mL,64 µg/mL,0.5 µg/mL,16 µg/mL,64 µg/mL,CN(Cc1ccc(-n2cnn(Cc3ccccc3)c2=O)cc1)CC(O)(Cn1cncn1)c1ccc(F)cc1F (stereo not given)
0.0612 µM,–,–,–,–,–,–,–,OC(CN1CCN(Cc2ccc(Br)cc2F)CC1)(Cn1cncn1)c1ccc(F)cc1F (stereo not given)
0.004 µg/mL,4 µg/mL,1 µg/mL,4 µg/mL,64 µg/mL,1 µg/mL,8 µg/mL,32 µg/mL,CN(Cc1ccc(-n2cnn(Cc3ccc(F)cc3)c2=O)cc1)CC(O)(Cn1cncn1)c1ccc(F)cc1F (stereo not given)
0.14 µM,–,–,–,–,–,–,–,OC(CN1CCN(Cc2cccc(Cl)c2)CC1)(Cn1cncn1)c1ccc(F)cc1F (stereo not given)
0.002 µg/mL,1 µg/mL,0.0625 µg/mL,0.25 µg/mL,16 µg/mL,0.0625 µg/mL,0.25 µg/mL,64 µg/mL,CN(Cc1ccc(-n2cnn(CC(=O)c3ccc(Br)cc3)c2=O)cc1)CC(O)(Cn1cncn1)c1ccc(F)cc1F (stereo not given)
0.0625 µg/mL,2 µg/mL,0.5 µg/mL,8 µg/mL,64 µg/mL,4 µg/mL,16 µg/mL,64 µg/mL,CN(Cc1ccc(N)cc1)CC(O)(Cn1cncn1)c1ccc(F)cc1F (stereo not given)
0.004 µg/mL,0.06 µg/mL,0.0625 µg/mL,1 µg/mL,64 µg/mL,0.0625 µg/mL,2 µg/mL,64 µg/mL,CN(Cc1ccc(-n2cnn(CC(=O)c3ccc(F)cc3)c2=O)cc1)CC(O)(Cn1cncn1)c1ccc(F)cc1F (stereo not given)
0.032 µM,–,–,–,–,–,–,–,OC(CN1CCN(c2cccc(C(F)(F)F)c2)CC1)(Cn1cncn1)c1ccc(F)cc1F (stereo not given)
0.002 µg/mL,0.008 µg/mL,0.0625 µg/mL,0.008 µg/mL,8 µg/mL,0.0625 µg/mL,0.25 µg/mL,64 µg/mL,CN(Cc1ccc(-n2cnn(Cc3ccc(Br)cc3)c2=O)cc1)CC(O)(Cn1cncn1)c1ccc(F)cc1F (stereo not given)
